This is an account of results in patent publication US4474764A, “3-Amino-2-hydroxy-4-phenylbutanoic acid derivatives and pharmaceutical composition containing the same” (Zaidan Hojin Biseibutsu Kagaku Kenkyu Kai, priority 1981, dated 1984).

Assay [1] deals with morphine analgesia-non-effective Wistar rats. Nature of the assay: Effect of enhancing morphine analgesia, tail-flick latency (Test 2). In kind it is in vivo, rat. As to conditions: 250 mg/kg test compound i.p., 10 minutes later 0.5 mg/kg morphine i.p.; versus 0.5 mg/kg morphine alone; tail-flick latency. The procedure:
Effect of enhancing morphine analgesia was tested.
To Wistar rats (10 week-age, male, body weight 250~300 g) was given intraperitoneally morphine at a dose of 0.5 mg/kg, and these rats receiving the morphine were classified into the group of morphine analgesia-effective rats and the group of morphine analgesia-non-effectiverats according to the classification method described in the "Showa Igakukai Zasshi" Vol. 39, No. 5, pages 537~542 (1979). […] The effect of analgesia was evaluated according to the method of tail-flick latency of rats described in the "Showa Igakukai Zasshi" Vol. 39, No. 5, pages 537~542 (1979). The evaluation of pain threshold of rats according to the tail-flick latency method was made as follows: Radiant heat stimulus was applied to the region of the rat tail which positioned 1 cm away from the tail tip and which had been colored black with a black-dye, and the time of latency involved in the tail flick, namely the period of time lapsing between the time of application of the heat stimulus and the time of the reflective flick response of the tail was measured. The quantity of the heat applied was so controlled that the average time of latency of the tail-flick response appearing in the control group of rats (receiving neither the test compound nor the morphine) was about 2.0 seconds. The tests were accomplished as long as the maximum value for the tail-flick latency was 7.0 seconds or less, as otherwise the skin of the rat tail could be damaged by the application of heat. In other words, if the time for the tail-flick latency was longer than 7.0 seconds, the tests were stopped to prevent the damage of the rat tail. The radiant heat stimulus was repeated 5 times for each test rat at an interval of 15 minutes and the times of latency in the flick response of the tail measured in each test were averaged. In each test, 5 rats were used.
The difference in the time of the tail-flick latency between the test rats (receiving 250 mg/kg of the test compound plus 0.5 mg/kg of morphine) and the control rats (receiving 0.5 mg/kg of morphine alone) was calculated, and the effect for enhancement of morphine analgesia was estimated in term of the value of percentages which were calculated by the following equation: [formula]

Another assay deals with T1, enkephalinase (Rattus norvegicus, UniProt P07861).
T1 construct: homogenizing corpus striatum of rat brain and by partial purification of the brain homogenate; from tissue; host or cells: rat brain corpus striatum, homogenate partially purified by the method of Gorenstein et al
T1 sequence (P07861 1-750): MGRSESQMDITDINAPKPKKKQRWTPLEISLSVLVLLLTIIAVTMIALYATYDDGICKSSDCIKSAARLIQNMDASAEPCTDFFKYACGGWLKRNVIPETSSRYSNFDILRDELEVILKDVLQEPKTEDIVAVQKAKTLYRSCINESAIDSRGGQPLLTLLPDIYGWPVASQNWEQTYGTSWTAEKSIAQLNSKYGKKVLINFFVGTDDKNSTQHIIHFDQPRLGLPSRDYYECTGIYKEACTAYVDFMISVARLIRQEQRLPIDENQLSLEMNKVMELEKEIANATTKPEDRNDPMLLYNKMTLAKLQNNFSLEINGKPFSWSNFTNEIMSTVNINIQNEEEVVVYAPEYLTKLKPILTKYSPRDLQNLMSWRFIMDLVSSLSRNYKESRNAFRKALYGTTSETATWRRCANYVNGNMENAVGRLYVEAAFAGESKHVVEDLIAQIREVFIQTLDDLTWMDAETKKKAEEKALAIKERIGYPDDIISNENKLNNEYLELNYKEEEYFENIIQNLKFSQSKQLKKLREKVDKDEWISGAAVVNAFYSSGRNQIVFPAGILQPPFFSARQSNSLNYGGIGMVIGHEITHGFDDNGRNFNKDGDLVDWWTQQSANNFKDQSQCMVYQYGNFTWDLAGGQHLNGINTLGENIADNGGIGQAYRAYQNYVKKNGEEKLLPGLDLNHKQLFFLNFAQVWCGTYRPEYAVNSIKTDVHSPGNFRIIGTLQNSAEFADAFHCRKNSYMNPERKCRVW
Nature of the assay: Inhibitory activity against enkephalinase (Test 1). The assay is classed as biochemical. Conditions: enkephalinase from corpus striatum of rat brain; substrate methionine-enkephaline; 37° C., 1 hour; pH 7.7. The procedure: Inhibitory activity against enkephalinase were tested.
A preparation of enkephalinase was made by homogenizing corpus striatum of rat brain and by partial purification of the brain homogenate according to the method of Gorenstein et al (see the "Life Science" Vol. 25, 2065~2070 (1979) Pergamon Press, U.S.A.).
A test compound was dissolved in a mixture of Trishydrochloride buffered solution (pH 7.7) and an aqueous 1% Triton X100 (an active surfectant) to such a concentration that the added quantity of the test compound amounted to one-tenth of the volume of said mixture. To the solution of the test compound so prepared was added the enkephalinase, followed by incubation for five minutes at ambient temperature and further by addition of methionine-enkephaline as the substrate. The admixture so obtained was incubated at 37° C. for 1 hour and then subjected to a high-performance liquid chromatography in such a manner that the Tyr-Gly-GLy (a fragment of the methionine-enkephaline) formed by the enzymatic degradation of methionine-enkephaline was isolated in some fractions of the eluate and the quantity of Tyr-Gly-GLy was determined by an electro-chemically analysing detector. In this way, IC50 value of the test compound, namely the dose of the test compound required for 50% inhibition of the enkephalinase was measured.

Structures are written as SMILES.

For `COC(=O)[C@@H](O)[C@@H](Cc1ccccc1)NC(=O)CN.Cl` [Compound 2, (2S,3R)-3-N--glycylamino-2-hydroxy-4-phenylbutanoic acid methyl ester hydrochloride], in assay [1], the “Morphine Analgesia enhancement” value is listed as 11.6%. The compound also gave an IC50 on enkephalinase of 300 µM.
As for `NCC(=O)NCC(=O)N[C@H](Cc1ccccc1)[C@H](O)C(=O)O` [Compound 4, (2S,3R)-3-N--glycylglycylamino-2-hydroxy-4-phenylbutanoic acid], in assay [1], the “Morphine Analgesia enhancement” value is 10.6%. Also, on enkephalinase, the IC50 was 240 µM.
In the same order, the values of `CC(C)C[C@H](NC(=O)[C@@H](O)[C@H](N)Cc1ccccc1)C(=O)O` [Bestatin, (2S,3R)-3-amino-2-hydroxy-4-phenylbutanoyl-(S)-leucine, reference compound] are 19.9% and 590 µM.
Regarding `CNCC(=O)N[C@H](Cc1ccccc1)[C@H](O)C(=O)O` [Compound 7, (2S,3R)-3-N--(N'--methylglycyl)amino-2-hydroxy-4-phenylbutanoic acid], the “Morphine Analgesia enhancement” value in assay [1] is given as 16.2%.
`N[C@H](Cc1ccccc1)C(=O)N[C@H](Cc1ccc(O)cc1)[C@H](O)C(=O)O` [Compound 17, (2S,3R)-3-N--(R)-phenylalanylamino-2-hydroxy-4-p-hydroxy-phenylbutanoic acid]: the “Morphine Analgesia enhancement” value in assay [1] is given as 32.1%. Also, 130 µM corresponded to half-maximal inhibition at enkephalinase (IC50).
In the same order, the values of `NCC(=O)N[C@H](Cc1ccccc1)[C@H](O)C(=O)O` [Compound 1, (2S,3R)-3-N--glycylamino-2-hydroxy-4-phenylbutanoic acid] are 25.7% and 2780 µM.
In the same order, the values of `C[C@@H](NC=O)C(=O)N[C@H](Cc1ccccc1)[C@H](O)C(=O)[O-].[Na+]` [Compound 15, (2S,3R)-3-N--(N'--formyl-(R)-alanyl)amino-2-hydroxy-4-phenylbutanoic acid sodium salt] are 19.7% and 150 µM.
In the same order, the values of `CC(C)C[C@@H](N)C(=O)N[C@H](Cc1ccccc1)[C@@H](O)C(=O)O` [Compound 18, (2R,3R)-3-N--(R)-leucylamino-2-hydroxy-4-phenylbutanoic acid] are 23.4% and 2650 µM.
`CC(C)C[C@@H](N)C(=O)N[C@H](Cc1ccccc1)[C@H](O)C(=O)O` [Compound 9, (2S,3R)-3-N--(R)-leucylamino-2-hydroxy-4-phenylbutanoic acid]: the “Morphine Analgesia enhancement” value in assay [1] is reported as 26.3%. This compound had an IC50 against enkephalinase of 2480 µM.
In the same order, the values of `COC(=O)[C@@H](O)[C@@H](Cc1ccccc1)NC(=O)CNC(=O)CN.Cl` [Compound 5, (2S,3R)-3-N--glycylglycylamino-2-hydroxy-4-phenylbutanoic acid methyl ester hydrochloride] are 19.0% and 1520 µM.
In the same order, the values of `C[C@@H](N)C(=O)N[C@H](Cc1ccccc1)[C@H](O)C(=O)O` [Compound 14, (2S,3R)-3-N--(R)-alanylamino-2-hydroxy-4-phenylbutanoic acid] are 16.8% and 2140 µM.
In the same order, the values of `CC(=O)NCC(=O)NCC(=O)N[C@H](Cc1ccccc1)[C@H](O)C(=O)O` [Compound 6, (2S,3R)-3-N--(N'--acetylglycylglycyl)amino-2-hydroxy-4-phenylbutanoic acid] are 32.5% and 2450 µM.
As for `NCC[C@H](O)C(=O)N[C@H](Cc1ccccc1)[C@H](O)C(=O)O` [Compound 11, (2S,3R)-3-N--[4'-amino-(2'S)--2'-hydroxybutanoyl]amino-2-hydroxy-4-phenylbutanoic acid], the “Morphine Analgesia enhancement” value in assay [1] turned out to be 21.6%. The compound further came in with an IC50 against enkephalinase of 1280 µM.
In the same order, the values of `COC(=O)[C@@H](O)[C@@H](Cc1ccccc1)NC(=O)CNC(C)=O` [Compound 3, (2S,3R)-3-N--(N'--acetylglycyl)amino-2-hydroxy-4-phenylbutanoic acid methyl ester] are 22.9% and 5480 µM.
For the compound `CC(=O)NCC(=O)NCC(=O)N[C@H](Cc1ccccc1)[C@H](O)C(=O)[O-].[Na+]` [Compound 13, (2S,3R)-3-N--(N'--acetylglycylglycyl)amino-2-hydroxy-4-phenylbutanoic acid sodium salt], the “Morphine Analgesia enhancement” value in assay [1] is 33.1%.
For the compound `CC(C)C[C@H](N)C(=O)N[C@H](Cc1ccccc1)[C@H](O)C(=O)O` [Compound 8, (2S,3R)-3-N--(S)--leucylamino-2-hydroxy-4-phenylbutanoic acid], the “Morphine Analgesia enhancement” value in assay [1] is on record as 22.5%. The IC50 at enkephalinase worked out at 2560 µM.
Take `N[C@H](Cc1ccccc1)[C@H](O)C(=O)N[C@H](Cc1ccccc1)[C@H](O)C(=O)O` [Compound 12, (2S,3R)-3-N--[(2'S,3'R)-3'-amino-2'-hydroxy-4'-phenylbutanoyl]amino-2-hydroxy-4-phenylbutanoic acid]: the “Morphine Analgesia enhancement” value in assay [1] was 15.7%. For the same compound, the IC50 on enkephalinase is above 20000 µM.
In the same order, the values of `N[C@@H](Cc1ccc(O)cc1)C(=O)NCC(=O)NCC(=O)N[C@@H](Cc1ccccc1)[C@@H](O)C(=O)O` [Compound 16, (2R,3S)--3-N--(S)--tyrosylglycylglycylamino-2-hydroxy-4-phenylbutanoic acid] are 15.2% and 440 µM.
